From ChEMBL document CHEMBL1201862, “PubChem BioAssay data set” (2004)
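Growth conditions: 96-well plates. Treatment: test compound, 48 hours, 5 concentrations. Analysis: linear interpolation between bracketing concentrations; unreached endpoints set to highest concentration. GI50 is the concentration that inhibits growth by half.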 The source made the active and inactive calls. Cut-off read from the data, not from the text of the source: active = GI50 up to about 1.1 µM and inactive = higher.

What was measured:
Assay in all cases: inhibition of tumour cell growth, NCI panel, 48 h
[1] = test system: T47D
[2] = test system: ACHN
[3] = test system: A549
[4] = test system: SF-539
[5] = test system: MOLT-4
[6] = test system: MDA-MB-231
[7] = test system: U-251
[8] = test system: NCI/ADR-RES
[9] = test system: Hs-578T
[10] = test system: EKVX
[11] = test system: UACC-62
[12] = test system: A498
[13] = test system: HOP-92
[14] = test system: DU-145
[15] = test system: HCC 2998
[16] = test system: K562
[17] = test system: IGROV-1
[18] = test system: LOX IMVI
[19] = test system: SK-OV-3
[20] = test system: SF-268

CC(=O)NC1C(OCc2ccccc2)OC(CO)C(O)C1OCC(=O)N[C@@H](C)C(=O)N[C@H](CCC(=O)NCCCNc1c2ccccc2nc2cccc([N+](=O)[O-])c12)C(N)=O (stereo partly specified)
GI50 [1]: 0.047 µM (active)
GI50 [2]: 0.0182 µM (active)
GI50 [3]: 0.0245 µM (active)
GI50 [4]: 0.0298 µM (active)
GI50 [5]: 0.0269 µM (active)
GI50 [6]: 0.05 µM (active)
GI50 [7]: 0.0349 µM (active)
GI50 [8]: 0.564 µM (active)
GI50 [9]: 0.156 µM (active)
GI50 [10]: 0.0462 µM (active)
GI50 [11]: 0.0321 µM (active)
GI50 [12]: 0.0547 µM (active)
GI50 [13]: 0.0295 µM (active)
GI50 [14]: 0.0308 µM (active)
GI50 [15]: 0.0142 µM (active)
GI50 [16]: 0.0229 µM (active)
GI50 [17]: 0.0506 µM (active)
GI50 [18]: 0.0439 µM (active)
GI50 [19]: 0.334 µM (active)

COc1ccc(C(=O)c2ccc(-n3cc(/C=C/[N+](=O)[O-])c4ccccc43)cc2)cc1
GI50 [1]: 2.07 µM (inactive)
GI50 [2]: 20.1 µM (inactive)
GI50 [20]: 18 µM (inactive)
GI50 [3]: 80.4 µM (inactive)
GI50 [4]: 14.7 µM (inactive)
GI50 [5]: 4.81 µM (inactive)
GI50 [6]: 19.3 µM (inactive)
GI50 [7]: 11.3 µM (inactive)
GI50 [8]: 24.3 µM (inactive)
GI50 [9]: 7.57 µM (inactive)
GI50 [10]: 23.6 µM (inactive)
GI50 [11]: 14.4 µM (inactive)
GI50 [12]: 22.4 µM (inactive)
GI50 [13]: 17.9 µM (inactive)
GI50 [14]: 21.5 µM (inactive)
GI50 [15]: 20.9 µM (inactive)
GI50 [16]: 6.53 µM (inactive)
GI50 [17]: 10.8 µM (inactive)
GI50 [18]: 6.55 µM (inactive)
GI50 [19]: 23.6 µM (inactive)

CC(C)[C@H](NC(=O)OCc1ccccc1)C(=O)N[C@H](/C=C/C(=O)OC(C)(C)C)CO
GI50 [1]: 36.7 µM (inactive)
GI50 [2]: > 100 µM (inactive)
GI50 [20]: > 100 µM (inactive)
GI50 [3]: > 100 µM (inactive)
GI50 [4]: > 100 µM (inactive)
GI50 [5]: > 100 µM (inactive)
GI50 [6]: > 100 µM (inactive)
GI50 [8]: > 100 µM (inactive)
GI50 [9]: > 100 µM (inactive)
GI50 [10]: > 100 µM (inactive)
GI50 [11]: > 100 µM (inactive)
GI50 [12]: > 100 µM (inactive)
GI50 [13]: > 100 µM (inactive)
GI50 [14]: > 100 µM (inactive)
GI50 [15]: > 100 µM (inactive)
GI50 [17]: > 100 µM (inactive)
GI50 [18]: > 100 µM (inactive)
GI50 [19]: > 100 µM (inactive)

C=C(C)[C@@H]1CC[C@]2(C(=O)O)CC[C@]3(C)[C@H](CC[C@@H]4[C@@]5(C)CC[C@H](C(=O)/C=C/c6ccc(O)cc6)C(C)(C)[C@@H]5CC[C@]43C)[C@@H]12
GI50 [1]: 4.58 µM (inactive)
GI50 [20]: 8.11 µM (inactive)
GI50 [3]: 9.73 µM (inactive)
GI50 [4]: 3.01 µM (inactive)
GI50 [5]: 2.85 µM (inactive)
GI50 [6]: 6.65 µM (inactive)
GI50 [7]: 2.93 µM (inactive)
GI50 [8]: 3.22 µM (inactive)
GI50 [9]: 4.75 µM (inactive)
GI50 [10]: 2.47 µM (inactive)
GI50 [11]: 8.89 µM (inactive)
GI50 [12]: 5.07 µM (inactive)
GI50 [13]: 11.9 µM (inactive)
GI50 [14]: 5.73 µM (inactive)
GI50 [15]: 3.21 µM (inactive)
GI50 [16]: 3.11 µM (inactive)
GI50 [17]: 8.17 µM (inactive)
GI50 [18]: 3.54 µM (inactive)
GI50 [19]: 6.15 µM (inactive)

O=C(Nc1nc2ncn(CCOC(=O)c3ccccc3)c2c(=O)[nH]1)c1ccccc1
GI50 [1]: 28.9 µM (inactive)
GI50 [2]: > 81.1 µM (inactive)
GI50 [20]: 26.2 µM (inactive)
GI50 [3]: 8.09 µM (inactive)
GI50 [4]: 10.8 µM (inactive)
GI50 [5]: 6.64 µM (inactive)
GI50 [6]: 3.79 µM (inactive)
GI50 [7]: 7.24 µM (inactive)
GI50 [8]: 66.2 µM (inactive)
GI50 [9]: 13.1 µM (inactive)
GI50 [10]: > 84.3 µM (inactive)
GI50 [11]: 9.12 µM (inactive)
GI50 [12]: > 100 µM (inactive)
GI50 [13]: 25.6 µM (inactive)
GI50 [14]: 31.8 µM (inactive)
GI50 [15]: 97.9 µM (inactive)
GI50 [16]: 3.05 µM (inactive)
GI50 [17]: 21 µM (inactive)
GI50 [18]: 5.92 µM (inactive)
GI50 [19]: > 50.7 µM (inactive)
